Biological target: T1, CFTR (Homo sapiens, UniProt P13569)
T1 construct: expressed in transfected cells
Assay: IonWorks Quattro assay (CFTR Inhibitor Assay), whole-cell planar patch clamp
Assay type: cell-based
Details: inward current (−100 mV); CHO cells stably expressing WT-CFTR; CFTR activated by 10 μM forskolin; test compound incubated 10 min
Text: CFTR activity can be quantified by electrophysiology methods, using the whole-cell configuration of the patch clamp technique (Hamill O, Marty A, Neher E, Sakmann B and Sigworth F. ‘Improved patch-clamp techniques for high resolution current recording from cells and cell-free membrane patches.’ Pflugers Archive 1981 391: 85-100). This assay directly measures the currents associated with chloride flow through CFTR channels whilst either maintaining or adjusting the transmembrane voltage. This assay can use either single glass micropipettes or parallel planar arrays to measure CFTR activity from native or recombinant cell systems. Currents measured using parallel planar arrays can be quantified using an appropriately equipped instrument such as the IonWorks Quattro (Molecular Devices Corporation, Sunnyvale, Calif.). The Quattro system can measure CFTR currents from either a single cell per recording well (HT configuration) or alternatively from a population of 64 cells per well (Population Patch Clamp PPC) (Finkel A, Wittel A, Yang N, Handran S, Hughes J, Costantin J. ‘Population patch clamp improves data consistency and success rates in the measurement of ionic currents.’ J Biomol Screen. 2006 August; 11 (5):488-96).
Chinese hamster ovary (CHO) cells stably expressing WT-CFTR channels were used for the IonWorks Quattro experiments. Cells were maintained at 37° C. in 5% v/v CO2 at 100% humidity in MEM alpha medium supplemented with 10% (v/v) FCS, 100 U/mL Penicillin/Streptomycin, and 100 μg/L methotrexate. For experiments, cells were grown in 225 cm^2 tissue culture flasks until almost confluent. Cells were removed from the flask using trypsin-EDTA and resuspended in extracellular recording solution for immediate experimentation.
Cells, at a density of 1.5-2 million per mL, were placed on the Quattro system, added to the planar patch plate and seals allowed to establish for 5-10 mins. After assessing seal resistances (typically >50 MΩ), whole-cell access was obtained by perforation with 100 μg/mL amphotericin B. Baseline currents were measured by a pre-compound scan obtained by application of a voltage ramp from −100 to +100 mV. CFTR was activated by the addition of 10 μM forskolin to each of the 384 wells of the patch plate. After 5 min incubation the post-compound 1 currents were measured, again by application of a voltage ramp from −100 to +100 mV. Test compounds, diluted from 10 mM stocks in DMSO in extracellular solution were then added to the patch plate and were incubated for a further 10 min. The post-compound 2 currents were measured by the application of the same voltage ramp from −100 to +100 mV. The inhibition of CFTR was determined from the difference in current between the forskolin addition (post-compound 1) and the test compound (post-compound 2). This was determined at both −100 mV and +100 mV which represents the inward and outward current respectively.
Extracellular solution (ECS): 145 mM NaCl, 4 mM CsCl, 5 mM D-glucose, 10 mM TES, 1 mM CaCl2, 1 mM MgCl2, pH 7.4 NaOH
Intracellular solution (ICS): 113 mM L-Aspartic acid, 113 mM CsOH, 27 mM CsCl, 1 mM NaCl, 1 mM MgCl2, 1 mM EGTA, 10 mM TES. pH 7.2 with CsOH. Filter sterilized before use.

T1 sequence (P13569 whole entry): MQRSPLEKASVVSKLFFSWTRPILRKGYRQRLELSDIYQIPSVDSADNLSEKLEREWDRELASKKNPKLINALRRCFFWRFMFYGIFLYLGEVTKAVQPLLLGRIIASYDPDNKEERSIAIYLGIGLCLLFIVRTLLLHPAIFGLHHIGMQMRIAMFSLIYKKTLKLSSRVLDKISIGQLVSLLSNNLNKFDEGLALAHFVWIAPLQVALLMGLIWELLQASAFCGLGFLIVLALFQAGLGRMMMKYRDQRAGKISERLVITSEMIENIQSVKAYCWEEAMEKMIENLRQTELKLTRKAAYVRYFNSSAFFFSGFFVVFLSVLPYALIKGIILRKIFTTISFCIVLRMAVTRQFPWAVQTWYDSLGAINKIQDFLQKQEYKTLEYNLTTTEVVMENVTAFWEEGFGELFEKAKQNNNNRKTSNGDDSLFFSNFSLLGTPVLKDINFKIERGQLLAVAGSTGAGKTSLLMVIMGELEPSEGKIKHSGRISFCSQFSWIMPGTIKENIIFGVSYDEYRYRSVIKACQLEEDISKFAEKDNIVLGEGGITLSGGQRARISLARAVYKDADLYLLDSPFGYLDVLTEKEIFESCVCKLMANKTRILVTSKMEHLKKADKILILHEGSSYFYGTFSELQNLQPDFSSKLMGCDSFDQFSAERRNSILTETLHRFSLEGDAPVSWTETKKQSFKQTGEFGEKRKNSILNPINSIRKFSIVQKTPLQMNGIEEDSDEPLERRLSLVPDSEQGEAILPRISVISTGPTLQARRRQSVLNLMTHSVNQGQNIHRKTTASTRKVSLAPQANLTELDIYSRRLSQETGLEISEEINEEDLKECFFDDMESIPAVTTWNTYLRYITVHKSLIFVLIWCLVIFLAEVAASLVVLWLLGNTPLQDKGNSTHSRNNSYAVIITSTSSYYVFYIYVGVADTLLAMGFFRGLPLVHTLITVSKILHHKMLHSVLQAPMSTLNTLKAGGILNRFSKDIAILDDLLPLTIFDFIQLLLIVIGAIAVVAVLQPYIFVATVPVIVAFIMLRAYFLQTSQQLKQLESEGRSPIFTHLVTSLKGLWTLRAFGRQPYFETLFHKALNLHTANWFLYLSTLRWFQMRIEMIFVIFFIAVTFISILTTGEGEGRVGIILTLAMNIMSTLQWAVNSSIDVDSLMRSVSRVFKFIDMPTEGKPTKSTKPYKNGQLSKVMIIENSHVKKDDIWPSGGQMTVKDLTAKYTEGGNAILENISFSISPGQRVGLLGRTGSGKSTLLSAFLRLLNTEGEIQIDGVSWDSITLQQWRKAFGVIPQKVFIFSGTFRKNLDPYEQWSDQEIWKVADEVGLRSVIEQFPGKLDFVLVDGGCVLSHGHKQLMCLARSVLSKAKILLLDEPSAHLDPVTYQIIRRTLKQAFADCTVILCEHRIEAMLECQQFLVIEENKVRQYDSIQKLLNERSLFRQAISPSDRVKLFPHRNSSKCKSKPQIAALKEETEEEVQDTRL

IC50 [µM] | Structure (SMILES)
0.47 | Cn1ccc(-c2c3c(=O)n(C)c(=O)n(C)c3c3n2CCCC3c2nc(Cl)cs2)n1 (racemic) [Example 22, 10-(4-Chlorothiazol-2-yl)-1,3-dimethyl-5-(1-methyl-1H-pyrazol-3-yl)-7,8,9,10-tetrahydropyrimido[4,5-a]indolizine-2,4(1H,3H)-dione]
27.6 | Cn1c(=O)c2c(-c3ccccc3)n3c(c2n(C)c1=O)C(c1cccc(F)c1F)CCC3 (racemic) [Example 6.1, 10-(2,3-Difluorophenyl)-1,3-dimethyl-5-phenyl-7,8,9,10-tetrahydropyrimido[4,5-a]indolizine-2,4(1H,3H)-dione]
0.18 | Cn1c(=O)c2c(-c3cccc(F)c3)n3c(c2n(C)c1=O)[C@H](c1ccc(Cl)o1)S[C@@H](CO)C3 (single isomer, unassigned) [Example 12.1b, 10-(5-chlorofuran-2-yl)-5-(3-fluorophenyl)-8-(hydroxymethyl)-1,3-dimethyl-7,8-dihydro-1H-pyrimido[4′,5′:3,4]pyrrolo[2,1-c][1,4]thiazine-2,4(3H,10H)-dione]
0.23 | COCC(=O)NC[C@H]1Cn2c(-c3nc(C)cs3)c3c(=O)n(C)c(=O)n(C)c3c2[C@H](c2ccc(Cl)o2)S1 (single isomer, unassigned) [Example 26.1a, N-((10-(5-chlorofuran-2-yl)-1,3-dimethyl-5-(4-methylthiazol-2-yl)-2,4-dioxo-2,3,4,7,8,10-hexahydro-1H-pyrimido[4′,5′:3,4]pyrrolo[2,1-c][1,4]thiazin-8-yl)methyl)-2-methoxyacetamide]
9.3 | Cn1c(=O)c2c(-c3ccccc3)n3c(c2n(C)c1=O)C(c1cccc(C#N)c1)CCC3 (racemic) [Example 9.2, 3-(1,3-Dimethyl-2,4-dioxo-5-phenyl-1,2,3,4,7,8,9,10-octahydropyrimido[4,5-a]indolizin-10-yl)benzonitrile]
0.48 | Cc1ccc(C2c3c4c(c(-c5cccc(F)c5)n3CCC2(F)F)c(=O)n(C)c(=O)n4C)o1 (racemic) [Example 18, 9,9-Difluoro-5-(3-fluorophenyl)-1,3-dimethyl-10-(5-methylfuran-2-yl)-7,8,9,10-tetrahydropyrimido[4,5-a]indolizine-2,4(1H,3H)-dione]
2.18 | Cc1ccc([C@@H]2C[C@H](C)Cn3c(-c4cccc(F)c4)c4c(=O)n(C)c(=O)n(C)c4c32)o1 (single isomer, unassigned) [Example 7.5b, 5-(3-fluorophenyl)-1,3,8-trimethyl-10-(5-methylfuran-2-yl)-7,8,9,10-tetrahydropyrimido[4,5-a]indolizine-2,4(1H,3H)-dione]
2.24 | Cc1ccc([C@@H]2CCCn3c(-c4ccccc4)c4c(=O)n(C)c(=O)n(C)c4c32)o1 [Example 6.3, (R)-1,3-Dimethyl-10-(5-methylfuran-2-yl)-5-phenyl-7,8,9,10-tetrahydropyrimido[4,5-a]indolizine-2,4(1H,3H)-dione]
0.2 | Cn1c(=O)c2c(-c3ccccc3)n3c(c2n(C)c1=O)C(c1ccc(Cl)o1)SC(CO)C3 (single isomer, unassigned) [Example 12.a, 10-(5-chlorofuran-2-yl)-8-(hydroxymethyl)-1,3-dimethyl-5-phenyl-7,8-dihydro-1H-pyrimido[4′,5′:3,4]pyrrolo[2,1-c][1,4]thiazine-2,4(3H,10H)-dione]
0.23 | Cn1ccc(-c2c3c(=O)n(C)c(=O)n(C)c3c3n2C[C@H](CO)S[C@H]3c2ccc(Cl)o2)n1 (single isomer, unassigned) [Example 17.1, 10-(5-Chlorofuran-2-yl)-8-(hydroxymethyl)-1,3-dimethyl-5-(1-methyl-1H-pyrazol-3-yl)-7,8-dihydro-1H-pyrimido[4′,5′:3,4]pyrrolo[2,1-c][1,4]thiazine-2,4(3H,10H)-dione]

Structure (SMILES) | IC50 [µM]
COc1cccc(-c2c3c(=O)n(C)c(=O)n(C)c3c3n2CCSC3c2ccc(Cl)o2)c1 (single isomer, unassigned) [Example 15.13, 10-(5-Chlorofuran-2-yl)-5-(3-methoxyphenyl)-1,3-dimethyl-7,8-dihydro-1H-pyrimido[4′,5′:3,4]pyrrolo[2,1-c][1,4]thiazine-2,4(3H,10H)-dione] | 0.62
Cn1ccc(-c2c3c(=O)n(C)c(=O)n(C)c3c3n2CCSC3c2ccc(Cl)o2)n1 (single isomer, unassigned) [Example 15.11, 10-(5-Chlorofuran-2-yl)-1,3-dimethyl-5-(1-methyl-1H-pyrazol-3-yl)-7,8-dihydro-1H-pyrimido[4′,5′:3,4]pyrrolo[2,1-c][1,4]thiazine-2,4(3H,10H)-dione] | 0.13
Cc1coc(-c2c3c(=O)n(C)c(=O)n(C)c3c3n2CCSC3c2ccc(Cl)o2)n1 (racemic) [Example 15.10, 10-(5-Chlorofuran-2-yl)-1,3-dimethyl-5-(4-methyloxazol-2-yl)-7,8-dihydro-1H-pyrimido[4′,5′:3,4]pyrrolo[2,1-c][1,4]thiazine-2,4(3H,10H)-dione] | 1.18
Cn1c(=O)c2c(-c3ccccc3)n3c(c2n(C)c1=O)[C@H](c1ccc(Cl)o1)SCC3 [Example 1.1.1, (R)-10-(5-chlorofuran-2-yl)-1,3-dimethyl-5-phenyl-7,8-dihydro-1H-pyrimido[4′,5′:3,4]pyrrolo[2,1-c][1,4]thiazine-2,4(3H,10H)-dione] | 0.63
Cn1c(=O)c2c(C3=CCCCC3)n3c(c2n(C)c1=O)C(c1ccc(Cl)o1)SCC3 (single isomer, unassigned) [Example 3.1.2, 10-(5-chlorofuran-2-yl)-5-(cyclohex-1-en-1-yl)-1,3-dimethyl-7,8-dihydro-1H-pyrimido[4′,5′:3,4]pyrrolo[2,1-c][1,4]thiazine-2,4(3H,10H)-dione] | 1.51
Cc1csc(-c2c3c(=O)n(C)c(=O)n(C)c3c3n2CCSC3c2ccc(Cl)o2)n1 (single isomer, unassigned) [Example 3.1.1, 10-(5-chlorofuran-2-yl)-1,3-dimethyl-5-(4-methylthiazol-2-yl)-7,8-dihydro-1H-pyrimido[4′,5′:3,4]pyrrolo[2,1-c][1,4]thiazine-2,4(3H,10H)-dione] | 0.41
Cc1ccc(C2SC[C@H](CN(C)C)n3c(-c4ccccc4)c4c(=O)n(C)c(=O)n(C)c4c32)o1 (single isomer, unassigned) [Example 2.1, 7-((dimethylamino)methyl)-1,3-dimethyl-10-(5-methylfuran-2-yl)-5-phenyl-7,8-dihydro-1H-pyrimido[4′,5′:3,4]pyrrolo[2,1-c][1,4]thiazine-2,4(3H,10H)-dione] | 0.41
CCn1c(=O)c2c(-c3ccccc3)n3c(c2n(CC)c1=O)C(c1ccc(Cl)o1)SCC3 (single isomer, unassigned) [Example 4.2, 10-(5-Chlorofuran-2-yl)-1,3-diethyl-5-phenyl-7,8-dihydro-1H-pyrimido[4′,5′:3,4]pyrrolo[2,1-c][1,4]thiazine-2,4(3H,10H)-dione] | 1.67
Cc1ccc(C2SCCn3c(-c4ccccc4)c4c(=O)n(C)c(=O)n(C)c4c32)o1 (single isomer, unassigned) [Example 1.2, 1,3-Dimethyl-10-(5-methylfuran-2-yl)-5-phenyl-7,8-dihydro-1H-pyrimido[4′,5′:3,4]pyrrolo[2,1-c][1,4]thiazine-2,4(3H,10H)-dione] | 0.79

From patent US20140171417A1, “TRICYCLIC COMPOUNDS” (NOVARTIS AG, priority 2012, published 2014)
